{
  "source": "patent US20120283334A1",
  "about": "“Treatment of Viral Infections” (Biocopea, Ltd., priority 2009, published 2012)",
  "tested_on": "influenza (A/PR/8/34), H1N1 virus",
  "assay": "In vivo mouse influenza challenge, bupropion metabolite by oral gavage",
  "details": "H1N1-infected mice",
  "from_the_text": "6) In Vivo Mouse Studies Using Bupropion Metabolite\nThe bupropion metabolite known as 2-(1,1-dimethylethyl)amino-1-(3-chlorophenyl)propan-1-ol (BC1053), in 10% ethanol, was delivered orally to influenza infected mice, as follows.\nTwo groups of n=12 C57BLK/6 barrier reared female mice (6-8 weeks old, and between 15-18 g in weight) were intranasally challenged with a lethal dose of influenza (A/PR/8/34). On day 3 post-challenge, the animals received the following treatments: group A received an oral gavage of 100 μl of 10% Ethanol in water; and group B received an oral gavage of 100 μl containing 540 μg of bupropion metabolite in 10% Ethanol in water.\nThe animals were weighed and monitored daily for morbidity and mortality up to day 6, when all animals were culled. Average weight loss per group and survival were calculated.\nAs described above, mice were infected with a H1N1 virus which was allowed to become established in each of the subjects. Each test mouse was then treated with 2-(1,1-dimethylethyl)amino-1-(3-chlorophenyl)propan-1-ol (i.e. a bupropion metabolite, BC1053) with a single dose on day 3 after infection with the virus. In the control mice, no metabolite was administered. The weight loss of both treated and untreated mice was then determined.",
  "data": [
    {"smiles": "CC(NC(C)(C)C)C(O)c1cccc(Cl)c1", "note": "(centres unmarked) [BC1053, 2-(1,1-dimethylethyl)amino-1-(3-chlorophenyl)propan-1-ol]", "values": [
      {"measurement": "lower reduction in weight loss than the control mice", "setting": "single oral dose 540 μg on day 3, FIG. 4", "value": "≥ 30", "unit": "%"},
      {"measurement": "higher survival rate than the control, untreated mice", "setting": "single oral dose 540 μg on day 3, FIG. 5", "value": "about 30%"}
    ]}
  ]
}
